Assays:
[1] = molecular target: GDP-bound NRAS wild-type protein (Homo sapiens, UniProt P01111); assay: Binding to NRAS by surface plasmon resonance (SPR), Single Cycle Kinetics; conditions: KD ratio, GDP-bound NRAS wild-type vs GDP-bound KRAS wild-type, SPR
[2] = molecular target: GDP-bound HRAS wild-type protein (Homo sapiens, UniProt P01112); assay: Binding to HRAS by surface plasmon resonance (SPR), Single Cycle Kinetics; conditions: KD ratio, GDP-bound HRAS wild-type vs GDP-bound KRAS wild-type, SPR
GDP-bound HRAS wild-type protein, sequence (P01112 whole entry): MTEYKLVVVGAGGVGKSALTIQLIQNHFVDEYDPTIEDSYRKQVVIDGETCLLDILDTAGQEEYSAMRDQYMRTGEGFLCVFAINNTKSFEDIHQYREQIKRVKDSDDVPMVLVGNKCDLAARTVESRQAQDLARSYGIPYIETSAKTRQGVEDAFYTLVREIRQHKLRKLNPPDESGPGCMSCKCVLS

GDP-bound NRAS wild-type protein, sequence (P01111 whole entry): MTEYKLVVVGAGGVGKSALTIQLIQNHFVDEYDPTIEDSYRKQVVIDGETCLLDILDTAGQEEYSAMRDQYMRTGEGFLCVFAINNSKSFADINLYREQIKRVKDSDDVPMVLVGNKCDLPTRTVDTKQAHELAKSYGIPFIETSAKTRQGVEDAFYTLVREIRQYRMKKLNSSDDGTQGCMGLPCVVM

SMILES | NRAS/KRAS (ratio of KD value with respect to NRAS to KD value with respect to KRAS) [1] | HRAS/KRAS (ratio of KD value with respect to HRAS to KD value with respect to KRAS) [2]
CCO[C@@H]1C[C@H]2C(=O)NC3(CCC3)C(=O)N(C)[C@@H](C3CCCC3)C(=O)N(CC)[C@H](C(=O)N3CCOCC3)CC(=O)N(C)[C@@H](CC)C(=O)N[C@@H]([C@@H](C)CC)C(=O)N(C)CC(=O)N(C)[C@H]3C/C=C\CCN(C3=O)[C@@H](Cc3ccc(C(F)(F)F)cc3)C(=O)N(C)CC(=O)N[C@@H](CCc3cc(F)c(C(F)(F)F)c(F)c3)C(=O)N2C1 [PP0979] | AA (a compound having 20 or more is denoted as AA) | A (a compound having 10 or more and less than 20 is denoted as A)
CCO[C@@H]1C[C@H]2C(=O)NC3(CCC3)C(=O)N(C)[C@@H](C3CCCC3)C(=O)N(CC)[C@H](C(=O)N(C)C)CC(=O)N(C)[C@@H](CC)C(=O)N[C@@H]([C@@H](C)CC)C(=O)N(C)CC(=O)N(C)[C@H]3C/C=C\CCN(C3=O)[C@@H](Cc3ccc(C(F)(F)F)cc3)C(=O)N(C)CC(=O)N[C@@H](CCc3cc(F)c(C(F)(F)F)c(F)c3)C(=O)N2C1 [PP0980] | A (a compound having 10 or more and less than 20 is denoted as A) | B (a compound having 3 or more and less than 10 is denoted as B)
CCO[C@@H]1C[C@H]2C(=O)NC3(CCC3)C(=O)N(C)[C@@H](C3CCCC3)C(=O)N(CCC3CCCC3)[C@H](C(=O)N3CCOCC3)CC(=O)N(C)[C@@H](CC)C(=O)N[C@@H]([C@@H](C)CC)C(=O)N(C)CC(=O)N(C)[C@H]3C/C=C\CCN(C3=O)[C@@H](Cc3ccc(C(F)(F)F)cc3)C(=O)N(C)CC(=O)N[C@@H](CCc3cc(F)c(C(F)(F)F)c(F)c3)C(=O)N2C1 [PP0981] | AA (a compound having 20 or more is denoted as AA) | A (a compound having 10 or more and less than 20 is denoted as A)
CCO[C@@H]1C[C@H]2C(=O)NC3(CCC3)C(=O)N(C)[C@@H](C3CCCC3)C(=O)N(CCC3CCCC3)[C@H](C(=O)N(C)C)CC(=O)N(C)[C@@H](CC)C(=O)N[C@@H]([C@@H](C)CC)C(=O)N(C)CC(=O)N(C)[C@H]3C/C=C\CCN(C3=O)[C@@H](Cc3ccc(C(F)(F)F)cc3)C(=O)N(C)CC(=O)N[C@@H](CCc3cc(F)c(C(F)(F)F)c(F)c3)C(=O)N2C1 [PP0982] | AA (a compound having 20 or more is denoted as AA) | A (a compound having 10 or more and less than 20 is denoted as A)
CCO[C@@H]1C[C@H]2C(=O)NC3(CCC3)C(=O)N(C)[C@@H](C3CCCC3)C(=O)N(C)[C@H](C(=O)N(C)C)CC(=O)N(C)[C@@H](CC)C(=O)N[C@@H]([C@@H](C)CC)C(=O)NCC(=O)N(C)[C@H]3C/C=C\CCN(C3=O)[C@@H](Cc3ccc(C(F)(F)F)cc3)C(=O)N(C)CC(=O)N[C@@H](CCc3cc(F)c(C(F)(F)F)c(F)c3)C(=O)N2C1 [PP0983] | A (a compound having 10 or more and less than 20 is denoted as A) | A (a compound having 10 or more and less than 20 is denoted as A)
CCO[C@@H]1C[C@H]2C(=O)NC3(CCC3)C(=O)N(C)[C@@H](C3CCCC3)C(=O)N(C)[C@H](C(=O)N(C)C)CC(=O)N(C)[C@@H](CC)C(=O)N[C@@H]([C@@H](C)CC)C(=O)N3CC[C@H]3C(=O)N(C)[C@H]3C/C=C\CCN(C3=O)[C@@H](Cc3ccc(C(F)(F)F)cc3)C(=O)N(C)CC(=O)N[C@@H](CCc3cc(F)c(C(F)(F)F)c(F)c3)C(=O)N2C1 [PP0984] | A (a compound having 10 or more and less than 20 is denoted as A) | A (a compound having 10 or more and less than 20 is denoted as A)
CCO[C@@H]1C[C@H]2C(=O)NC3(CCC3)C(=O)N(C)[C@@H](C3CCCC3)C(=O)N(C)[C@H](C(=O)N(C)C)CC(=O)N(C)[C@@H](CC)C(=O)N[C@@H]([C@@H](C)CC)C(=O)N(C)CC(=O)N(C)[C@H]3CCCCN(C3=O)[C@@H](Cc3ccc(C(F)(F)F)cc3)C(=O)N(C)CC(=O)N[C@@H](CCc3cc(Cl)c(C(F)(F)F)c(Cl)c3)C(=O)N2C1 [PP0985] | C (A compound having a KD ratio of 0.1 or more and less than 3 is denoted as C) | C (A compound having a KD ratio of 0.1 or more and less than 3 is denoted as C)
CCO[C@@H]1C[C@H]2C(=O)NC3(CCC3)C(=O)N(C)[C@@H](C3CCCC3)C(=O)N(C)[C@H](C(=O)N(C)C)CC(=O)N(C)[C@@H](CC)C(=O)N[C@@H]([C@@H](C)CC)C(=O)N(C)CC(=O)N(C)[C@H]3CCCCN(C3=O)[C@@H](Cc3ccc(C(F)(F)F)cc3)C(=O)N(C)CC(=O)N[C@@H](CCc3ccc(OC(F)F)c(F)c3)C(=O)N2C1 [PP0986] | C (A compound having a KD ratio of 0.1 or more and less than 3 is denoted as C) | C (A compound having a KD ratio of 0.1 or more and less than 3 is denoted as C)
CCO[C@@H]1C[C@H]2C(=O)NC3(CCC3)C(=O)N(C)[C@@H](C3CCCC3)C(=O)N(C)[C@H](C(=O)N(C)C)CC(=O)N(C)[C@@H](CC)C(=O)N[C@@H]([C@@H](C)CC)C(=O)N(C)CC(=O)N(C)[C@H]3CCCCN(C3=O)[C@@H](Cc3ccc(C(F)(F)F)cc3)C(=O)N(C)CC(=O)N[C@@H](CCc3ccc(Cl)c(Cl)c3)C(=O)N2C1 [PP0987] | C (A compound having a KD ratio of 0.1 or more and less than 3 is denoted as C) | C (A compound having a KD ratio of 0.1 or more and less than 3 is denoted as C)
CCO[C@@H]1C[C@H]2C(=O)NC3(CCC3)C(=O)N(C)[C@@H](C3CCCC3)C(=O)N(C)[C@H](C(=O)N(C)C)CC(=O)N(C)[C@@H](CC)C(=O)N[C@@H]([C@@H](C)CC)C(=O)N(C)CC(=O)N(C)[C@H]3CCCCN(C3=O)[C@@H](Cc3ccc(C(F)(F)F)cc3)C(=O)N(C)CC(=O)N[C@@H](CCc3cc(Cl)c(Cl)c(Cl)c3)C(=O)N2C1 [PP0988] | C (A compound having a KD ratio of 0.1 or more and less than 3 is denoted as C) | B (a compound having 3 or more and less than 10 is denoted as B)
CCO[C@@H]1C[C@H]2C(=O)NC3(CCC3)C(=O)N(C)[C@@H](C3CCCC3)C(=O)N(C)[C@H](C(=O)N(C)C)CC(=O)N(C)[C@@H](CC)C(=O)N[C@@H]([C@@H](C)CC)C(=O)N(C)CC(=O)N(C)[C@H]3CCCCCN(C3=O)[C@@H](Cc3ccc(C(F)(F)F)cc3)C(=O)N(C)CC(=O)N[C@@H](CCc3cc(Cl)c(C(F)(F)F)c(Cl)c3)C(=O)N2C1 [PP0989] | B (a compound having 3 or more and less than 10 is denoted as B) | B (a compound having 3 or more and less than 10 is denoted as B)
CCO[C@@H]1C[C@H]2C(=O)N[C@]3(C)CCCCCC[C@@H](C(=O)N[C@@H]([C@@H](C)CC)C(=O)N(C)CC(=O)N(C)[C@H]4CCCCN(C4=O)[C@@H](Cc4ccc(C(F)(F)F)cc4)C(=O)N(C)CC(=O)N[C@@H](CCc4cc(F)c(C(F)(F)F)c(F)c4)C(=O)N2C1)N(C)C(=O)C[C@@H](C(=O)N1CCOCC1)N(C)C(=O)[C@H](C1CCCC1)N(C)C3=O [PP0992] | B (a compound having 3 or more and less than 10 is denoted as B) | B (a compound having 3 or more and less than 10 is denoted as B)
CCO[C@@H]1C[C@H]2C(=O)N[C@@]3(C)CCCCCCC[C@@H](C(=O)N[C@@H]([C@@H](C)CC)C(=O)N(C)CC(=O)N(C)[C@H]4CCCCN(C4=O)[C@@H](Cc4ccc(C(F)(F)F)cc4)C(=O)N(C)CC(=O)N[C@@H](CCc4cc(F)c(C(F)(F)F)c(F)c4)C(=O)N2C1)N(C)C(=O)C[C@@H](C(=O)N1CCOCC1)N(C)C(=O)[C@H](C1CCCC1)N(C)C3=O [PP0993] | B (a compound having 3 or more and less than 10 is denoted as B) | B (a compound having 3 or more and less than 10 is denoted as B)
CCCCO[C@@H]1C[C@H]2C(=O)NC3(CCC3)C(=O)N(C)[C@@H](C3CCCC3)C(=O)N(C)[C@H](C(=O)N3CCOCC3)CC(=O)N(C)[C@@H](CC(C)C)C(=O)N[C@@H]([C@@H](C)CC)C(=O)N(C)CC(=O)N(C)[C@H]3CCCCN(C3=O)[C@@H](Cc3ccc(C(F)(F)F)cc3)C(=O)N(C)CC(=O)N[C@@H](CCc3cc(F)c(C(F)(F)F)c(F)c3)C(=O)N2C1 [PP0999] | C (A compound having a KD ratio of 0.1 or more and less than 3 is denoted as C) | B (a compound having 3 or more and less than 10 is denoted as B)
CC[C@H](C)[C@@H]1NC(=O)[C@H](CC(C)C)N(C)C(=O)C[C@@H](C(=O)N2CCOCC2)N(C)C(=O)[C@H](C2CCCC2)N(C)C(=O)C2(CCC2)NC(=O)[C@@H]2C[C@@H](OCC3CC3)CN2C(=O)[C@H](CCc2cc(F)c(C(F)(F)F)c(F)c2)NC(=O)CN(C)C(=O)[C@H](Cc2ccc(C(F)(F)F)cc2)N2CCCC[C@@H](C2=O)N(C)C(=O)CN(C)C1=O [PP1000] | B (a compound having 3 or more and less than 10 is denoted as B) | B (a compound having 3 or more and less than 10 is denoted as B)
CC[C@H](C)[C@@H]1NC(=O)[C@H](CC(C)C)N(C)C(=O)C[C@@H](C(=O)N2CCOCC2)N(C)C(=O)[C@H](C2CCCC2)N(C)C(=O)C2(CCC2)NC(=O)[C@@H]2C[C@@H](OCC3CCCC3)CN2C(=O)[C@H](CCc2cc(F)c(C(F)(F)F)c(F)c2)NC(=O)CN(C)C(=O)[C@H](Cc2ccc(C(F)(F)F)cc2)N2CCCC[C@@H](C2=O)N(C)C(=O)CN(C)C1=O [PP1001] | B (a compound having 3 or more and less than 10 is denoted as B) | B (a compound having 3 or more and less than 10 is denoted as B)
